The results in this text go back to US10005768B2, “Carboxamide derivatives and use thereof” (Purdue Pharma L.P., priority 2013, dated 2018).

In general, IC50 refers to the point on the concentration scale where inhibition reaches its midpoint.

The target in the experiment is human Nav1.7 (Homo sapiens (Human), UniProt Q15858). The experiment in a line: FLIPR sodium dye assay (CoroNa Green AM Na+ dye, primary fluorescence assay). Type of experiment: cell-based. As to conditions: recombinant Nav1.7/HEK293 cells. On the procedure: In vitro assays were performed in a recombinant cell line expressing cDNA encoding the alpha subunit (Nav1.7, SCN9a, PN1, NE) of human Nav1.7 (Accession No. NM_002977). The cell line was provided by investigators at Yale University (Cummins et al, J. Neurosci. 18(23): 9607-9619 (1998)). For dominant selection of the Nav1.7-expressing clones, the expression plasmid co-expressed the neomycin resistance gene. The cell line was constructed in the human embryonic kidney cell line, HEK293, under the influence of the CMV […] promoter, and stable clones were selected using limiting dilution cloning and antibiotic selection using the neomycin analogue, G418. Recombinant beta and gamma subunits were not introduced into this cell line. Additional cell lines expressing recombinant Nav1.7 cloned from other species can also be used, alone or in combination with various beta subunits, gamma subunits or chaperones.
human Nav1.7, sequence (Q15858 other isoform, or with tags, fused parts or gaps): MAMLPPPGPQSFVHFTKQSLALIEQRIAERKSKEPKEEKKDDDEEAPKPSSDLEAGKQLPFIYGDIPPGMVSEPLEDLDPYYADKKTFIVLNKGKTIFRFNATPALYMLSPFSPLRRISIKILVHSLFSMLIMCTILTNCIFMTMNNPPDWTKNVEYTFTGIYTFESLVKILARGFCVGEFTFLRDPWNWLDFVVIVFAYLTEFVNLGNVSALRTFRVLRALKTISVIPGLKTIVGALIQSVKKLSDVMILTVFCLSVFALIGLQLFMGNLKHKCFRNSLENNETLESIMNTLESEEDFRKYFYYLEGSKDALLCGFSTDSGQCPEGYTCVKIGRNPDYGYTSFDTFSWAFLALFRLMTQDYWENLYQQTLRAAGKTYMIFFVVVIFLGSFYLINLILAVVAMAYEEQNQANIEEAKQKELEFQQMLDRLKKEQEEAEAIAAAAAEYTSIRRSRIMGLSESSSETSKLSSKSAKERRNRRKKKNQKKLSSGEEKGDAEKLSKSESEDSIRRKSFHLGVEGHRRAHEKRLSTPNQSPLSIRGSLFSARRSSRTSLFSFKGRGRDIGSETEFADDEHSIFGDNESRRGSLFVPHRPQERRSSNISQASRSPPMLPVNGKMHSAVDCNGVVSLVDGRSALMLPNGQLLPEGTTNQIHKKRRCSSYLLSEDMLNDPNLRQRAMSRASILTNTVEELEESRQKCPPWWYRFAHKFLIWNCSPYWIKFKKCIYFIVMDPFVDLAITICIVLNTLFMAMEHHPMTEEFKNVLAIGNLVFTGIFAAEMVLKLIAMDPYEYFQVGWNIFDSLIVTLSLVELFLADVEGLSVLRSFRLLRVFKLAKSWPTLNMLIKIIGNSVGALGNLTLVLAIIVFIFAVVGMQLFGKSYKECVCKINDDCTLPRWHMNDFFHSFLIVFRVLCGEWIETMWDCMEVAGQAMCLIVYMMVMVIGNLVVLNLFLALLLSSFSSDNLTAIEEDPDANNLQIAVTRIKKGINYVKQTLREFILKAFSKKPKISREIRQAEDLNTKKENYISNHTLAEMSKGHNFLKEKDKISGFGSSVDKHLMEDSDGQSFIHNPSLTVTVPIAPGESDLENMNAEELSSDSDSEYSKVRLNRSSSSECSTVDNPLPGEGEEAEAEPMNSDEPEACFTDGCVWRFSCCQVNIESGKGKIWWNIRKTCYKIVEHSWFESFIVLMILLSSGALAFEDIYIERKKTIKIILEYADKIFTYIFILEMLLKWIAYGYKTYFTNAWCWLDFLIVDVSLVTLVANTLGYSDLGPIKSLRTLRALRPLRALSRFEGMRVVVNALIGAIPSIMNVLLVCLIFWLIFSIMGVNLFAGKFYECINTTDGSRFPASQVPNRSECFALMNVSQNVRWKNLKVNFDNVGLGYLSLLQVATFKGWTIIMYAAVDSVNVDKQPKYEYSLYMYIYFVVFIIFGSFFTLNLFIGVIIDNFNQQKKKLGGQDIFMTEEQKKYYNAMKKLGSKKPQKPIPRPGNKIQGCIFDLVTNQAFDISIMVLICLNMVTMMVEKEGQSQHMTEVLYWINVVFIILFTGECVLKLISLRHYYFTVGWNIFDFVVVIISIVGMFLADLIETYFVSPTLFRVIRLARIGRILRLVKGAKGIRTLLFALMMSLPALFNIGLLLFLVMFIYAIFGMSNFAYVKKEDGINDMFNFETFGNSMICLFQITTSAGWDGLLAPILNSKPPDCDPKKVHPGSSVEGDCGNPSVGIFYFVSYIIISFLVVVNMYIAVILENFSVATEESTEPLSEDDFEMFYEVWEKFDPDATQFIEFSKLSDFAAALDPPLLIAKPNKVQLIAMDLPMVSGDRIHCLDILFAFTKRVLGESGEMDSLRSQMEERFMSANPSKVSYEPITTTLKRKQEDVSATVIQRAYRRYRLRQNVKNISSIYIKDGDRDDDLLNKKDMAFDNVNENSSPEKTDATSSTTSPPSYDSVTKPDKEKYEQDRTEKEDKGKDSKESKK
Unless otherwise noted, cell culture reagents were purchased from Mediatech of Herndon, Va. The recombinant Nav1.7/HEK293 cells were routinely cultured in growth medium consisting of Dulbecco's […] essential medium containing 10% fetal bovine serum (FBS, Hyclone, Thermo Fisher Scientific, Logan, Utah), 100 U/mL penicillin, 100 μg/mL streptomycin, 2-4 mM L-glutamine, and […] G418. For natural, non-recombinant cell lines, the selective antibiotic was omitted, and additional media formulations can be applied as needed.
The final buffer consisted of 20 mM Hepes, pH 7.3, 1.261 mM CaCl2, 0.493 mM MgCl2, 0.407 mM Mg(SO)4, 5.33 mM KCl, 0.441 mM KH2PO4, 137 mM NaCl, 0.336 mM Na2HPO4 and […] D-glucose (Hanks et al., Proc. Soc. Exp. Biol. Med. 71:196 (1949)), and the simple formulation was typically the basic buffer throughout the assay (i.e., all wash and addition steps).
The fluorescence indicator used in the primary fluorescence assay was the cell permeant version of CoroNa™ Green (Invitrogen, Molecular Probes, Eugene, Oreg.), a dye that emits light in the fluorescence range (Harootunian et al., J. Biol. Chem. 264(32):19458-19467 (1989)). The intensity of this emission, but not the wavelength range, is increased when the dye is exposed to Na^+ ions, which it can bind with partial selectivity. Cells expressing Nav1.7 or other sodium channels were loaded with the CoroNa™ Green dye immediately in advance of the fluorescence assay, and then, after agonist stimulation, the mobilization of Na^+ ions was detected as the Na^+ ions flowed from the extracellular fluid into the cytoplasm through the activated sodium channel pores. The dye was stored in the dark as a lyophilized powder, and then an aliquot was dissolved immediately before the cell loading procedure, according to the instructions of the manufacturer, to a stock concentration of 10 mM in DMSO. It was then diluted in the assay buffer to a 4× concentrated working solution, so that the final concentration of dye in the cell loading buffer was 5 μM.
In the fluorescence assays, two agonists were used in combination, namely 1) veratridine; and 2) the venom from the yellow scorpion, Leiurus quinquestriatus hebraeus. Veratridine is an alkaloid small molecule that facilitates the capture of channel openings by inhibiting inactivation, and the scorpion venom is a natural preparation that includes peptide toxins selective for different subsets of voltage-gated sodium channels. These scorpion toxins inhibit the fast inactivation of their cognate target channels. Stock solutions of the agonists were prepared to 40 mM in DMSO (veratridine) and 1 mg/mL in dH2O (scorpion venom), and then diluted to make a 4× or 2× stock (depending on the particular assay) in assay buffer, the final concentration being 100 μM (veratridine) and 10 μg/mL (scorpion venom). Both of the agonists were purchased from Sigma Aldrich, St. Louis, Mo.
Test compounds were dissolved in DMSO to yield 10 mM stock solutions. […]
Consider `NC(=O)c1cccc(-c2ccc(Oc3ccc(C(F)(F)F)cc3C(C(=O)N3CCCC3)N3CCCC3)cc2)n1` (stereo not shown) [compound 111, 6-(4-(2-(2-oxo-1,2-di(pyrrolidin-1-yl)ethyl)-4-(trifluoromethyl)phenoxy)phenyl) picolinamide], for which the concentration for half-maximal inhibition (IC50) was 6.59 ± 0.321 µM.

`NC(=O)c1cccc(-c2ccc(Oc3ccc(C(F)(F)F)cc3CN3CCC[C@H]3CO)cc2)n1` [compound 41, (S)-6-(4-(2-((2-(hydroxyl-methyl)pyrrolidin-1-yl)methyl)-4-(trifluoromethyl)phenoxy)phenyl) picolinamide]: the IC50 stood at 1.13 ± 0.1 µM.

Take `NC(=O)c1cccc(-c2ccc(Oc3ccc(C(F)(F)F)cc3CNCCO)cc2)n1` [compound 40, 6-(4-(2-(((2-hydroxyethyl)-amino)methyl)-4-(trifluoro-methyl)phenoxy)phenyl)picolin-amide]: the IC50 was 1.68 ± 0.177 µM.

For `CNC(=O)c1cc(C(F)(F)F)ccc1Oc1ccc(-c2cccc(C(N)=O)n2)cc1` [compound 163, 6-(4-(2-(methylcarbamoyl)-4-(trifluoromethyl)phenoxy)phenyl) picolinamide], the concentration for half-maximal inhibition (IC50) is > 20 µM.

On to `NC(=O)c1cccc(-c2ccc(Oc3ccc(C(F)(F)F)cc3CN3CCOCC3)cc2)n1` [compound 43, 6-(4-(2-(morpholinomethyl)-4-(trifluoromethyl)phenoxy)phenyl) picolinamide], for which the half-inhibitory concentration (IC50) stood at 0.223 ± 0.018 µM.

Consider `NC(=O)c1cccc(-c2ccc(Oc3ccc(C(F)(F)F)cc3C(C(N)=O)N3CCCCC3)cc2)n1` (stereo not shown) [compound 82, 6-(4-(2-(2-amino-2-oxo-1-(piperidin-1-yl)ethyl)-4-(trifluoromethyl)phenoxy)phenyl) picolinamide], for which the IC50 was determined as 2.72 ± 0.264 µM.

As for `NC(=O)c1cccc(-c2ccc(Oc3ccc(F)cc3)cc2C(F)(F)F)n1` [compound 91, 6-(4-(4-fluorophenoxy)-2-(trifluoromethyl)phenyl)picolin-amide], the IC50 was 0.577 ± 0.056 µM.

As to `OC[C@@H](O)c1cccc(-c2ccc(Oc3ccc(C(F)(F)F)cc3CN3CCCCC3)cc2)n1` [compound 107, (S)-1-(6-(4-(2-(piperidin-1-ylmethyl)-4-(trifluoromethyl)phenoxy)phenyl)pyridin-2-yl)ethane-1,2-diol], the IC50 stood at 0.174 ± 0.041 µM.

In the case of `NCC(O)c1cc(C(F)(F)F)ccc1Oc1ccc(-c2cccc(C(N)=O)n2)cc1` (stereo not shown) [compound 64, 6-(4-(2-(2-amino-1-hydroxy-ethyl)-4-(trifluoromethyl)-phenoxy)phenyl)picolinamide], the IC50 is 2.14 ± 0.199 µM.

Consider `NC(=O)c1cccc(-c2ccc(Oc3ccc(C(F)(F)F)c(CN4CC(N)C4)c3)cc2)n1` [compound 62, 6-(4-(3-((3-aminoazetidin-1-yl)methyl)-4-(trifluoromethyl)phenoxy)phenyl) picolinamide], for which the IC50 worked out at 0.31 ± 0.066 µM.

For `NC(=O)c1cccc(-c2ccc(Oc3ccc(C(F)(F)F)cc3CN3CCC[C@H]3C(N)=O)cc2)n1` [compound 44, (S)-6-(4-(2-((2-carbamoyl-pyrrolidin-1-yl)methyl)-4-(trifluoromethyl)phenoxy)phenyl) picolinamide], the IC50 is 1.16 ± 0.076 µM.

Consider `CC(C)(C)OC(=O)N1CCC(NCc2cc(C(F)(F)F)ccc2Oc2ccc(-c3cccc(C(N)=O)n3)cc2)C1` (stereo not shown) [compound 48, tert-butyl 3-((2-(4-(6-carbamoylpyridin-2-yl)phenoxy)-5-(trifluoromethyl)benzyl)-amino)pyrrolidine-1-carboxylate], for which the IC50 is 0.913 ± 0.016 µM.

In the case of `N#Cc1ccc(Oc2ccc(-c3cccc(C(N)=O)n3)cc2)cc1-c1cccnc1` [compound 27, 6-(4-(4-cyano-3-(pyridin-3-yl)phenoxy)phenyl)picolinamide], the IC50 came to 0.549 ± 0.085 µM.

Take `NC(=O)c1cccc(-c2ccc(Oc3ccc(C(F)(F)F)cc3CNC3CCCC3)cc2)n1` [compound 108, 6-(4-(2-((cyclopentylamino)-methyl)-4-(trifluoromethyl)-phenoxy)phenyl)picolinamide]: the IC50 stood at 0.28 ± 0.009 µM.

Regarding `NC(=O)c1cccc(-c2ccc(Oc3ccc(C(F)(F)F)c(CN4CCC4)c3)cc2)n1` [compound 53, 6-(4-(3-(azetidin-1-ylmethyl)-4-(trifluoromethyl)phenoxy)phenyl) picolinamide], the IC50 came to 0.384 ± 0.106 µM.

As for `N#Cc1ccc(Oc2ccc(-c3cccc(C(N)=O)n3)cc2)c(-c2ccc(O)nc2)c1` [compound 23, 6-(4-(4-cyano-2-(6-hydroxypyridin-3-yl)phenoxy)phenyl)picolinamide], the IC50 was > 20 µM.

With `OC[C@@H](O)c1ccnc(-c2ccc(Oc3ccc(C(F)(F)F)cc3CN3CCCC3)cc2)n1` [compound 116, (S)-1-(2-(4-(2-(pyrrolidin-1-ylmethyl)-4-(trifluoromethyl)phenoxy)phenyl)pyrimidin-4-yl)ethane-1,2-diol], the IC50 was found to be 0.636 ± 0.065 µM.

With `CCCNC(C(N)=O)c1cc(C(F)(F)F)ccc1Oc1ccc(-c2cccc(C(N)=O)n2)cc1` (stereo not shown) [compound 83, 6-(4-(2-(2-amino-2-oxo-1-(propylamino)ethyl)-4-(trifluoromethyl)phenoxy)phenyl) picolinamide], the IC50 worked out at 6.05 ± 1.33 µM.

As for `N#CC(N)c1cc(C(F)(F)F)ccc1Oc1ccc(-c2cccc(C(N)=O)n2)cc1` (stereo not shown) [compound 145, 6-(4-(2-(amino(cyano)methyl)-4-(trifluoromethyl)phenoxy)phenyl) picolinamide], the IC50 was 3.34 ± 0.452 µM.

For the compound `NC(=O)c1cccc(-c2ccc(Oc3ccc(C(F)(F)F)cc3-c3ccncc3)cc2)n1` [compound 28, 6-(4-(2-(pyridin-4-yl)-4-(trifluoromethyl)phenoxy)phenyl) picolinamide], the IC50 was 0.101 ± 0.021 µM.

With `NC(=O)c1cccc(-c2ccc(Oc3cccc(CN4CCCC4)n3)cc2)n1` [compound 59, 6-(4-((6-(pyrrolidin-1-ylmethyl)pyridin-2-yl)oxy)phenyl)picolinamide], the IC50 was > 20 µM.

For the compound `NC(=O)c1cccc(-c2ccc(Oc3ccc(C(F)(F)F)cc3CN3CCCC(O)C3)cc2)n1` (stereo not shown) [compound 51, 6-(4-(2-((3-hydroxypiperidin-1-yl)methyl)-4-(trifluoromethyl)-phenoxy)phenyl)picolinamide], the IC50 is 0.566 ± 0.062 µM.

As to `Cn1cc(-c2cc(C#N)ccc2Oc2ccc(-c3cccc(C(N)=O)n3)cc2)cn1` [compound 21, 6-(4-(4-cyano-2-(1-methyl-1H-pyrazol-4-yl)phenoxy)phenyl)-picolinamide], the IC50 was 0.564 ± 0.035 µM.

With `CN(Cc1cc(-c2cccc(C(N)=O)n2)ccc1Oc1ccc(F)cc1)c1ccc(C(=O)O)cc1` [compound 93, 4-((5-(6-carbamoylpyridin-2-yl)-2-(4-fluorophenoxy)benzyl)-(methyl)amino)benzoic acid], the IC50 was > 20 µM.

With `CCN(CC)Cc1cc(-c2cccc(C(N)=O)n2)ccc1Oc1ccc(F)cc1` [compound 95, 6-(3-((diethylamino)methyl)-4-(4-fluorophenoxy)phenyl) picolinamide], the IC50 worked out at 1.33 ± 0.209 µM.

As for `CCN(C)Cc1cc(C(F)(F)F)ccc1Oc1ccc(-c2cccc(C(N)=O)n2)cc1` [compound 117, 6-(4-(2-((ethyl(methyl)amino)methyl)-4-(trifluoromethyl)phenoxy)phenyl) picolinamide], the IC50 was 0.066 ± 0.007 µM.

For `O=C1CN(Cc2cc(C(F)(F)F)ccc2Oc2ccc(-c3cccc([C@H](O)CO)n3)cc2)CCN1` [compound 74, (S)-4-(2-(4-(6-(1,2-dihydroxyethyl)pyridin-2-yl)phenoxy)-5-(trifluoro-methyl)benzyl)piperazin-2-one], the IC50 turned out to be 0.672 ± 0.059 µM.

On to `CN(C)CCN(C)Cc1cc(C(F)(F)F)ccc1Oc1ccc(-c2cccc(C(N)=O)n2)cc1` [compound 37, 6-(4-(2-(((2-(dimethylamino)-ethyl)(methyl)amino)methyl)-4-(trifluoromethyl)phenoxy)-phenyl)picolinamide], for which the IC50 was found to be 1.07 ± 0.117 µM.
